Test results published in patent publication US10442779B2, “Compositions and methods for treating Friedreich's ataxia” (Fratagene Therapeutics S.R.L., priority 2014, dated 2019).

Experiments:
[1] = target: T1, frataxin^1-210 in HEK-293 Flp-In cells (293-frataxin) (Homo sapiens, UniProt Q16595); assay: Frataxin precursor / mature frataxin accumulation in 293-frataxin cells (western blot); format: cell-based; details: 10 μM; for frataxin precursor accumulation: 24 hrs, compared with UCM2 and MG132; for mature frataxin accumulation: 72 hrs (3 days)
T1 construct: 293 Flp-In cells stably expressing frataxin^1-210 were treated for 24 hrs; expressed in transfected cells
T1 sequence (Q16595 42-210): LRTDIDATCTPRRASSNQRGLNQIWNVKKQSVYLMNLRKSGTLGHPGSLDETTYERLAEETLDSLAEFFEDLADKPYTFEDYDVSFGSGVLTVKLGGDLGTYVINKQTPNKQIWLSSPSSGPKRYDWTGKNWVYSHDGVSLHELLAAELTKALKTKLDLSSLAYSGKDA
Protocol: (§1) Cell culture and transfections. Human embryonic kidney HEK-293 cells were cultured in Dulbecco's modified Eagle's medium (DMEM) supplemented with 10% fetal bovine serum (FBS). HEK-293 cells were transfected using Lipofectamine 2000 reagents (Invitrogen), according to the manufacturer's instructions. Cells were plated on 6 cm dishes and transfected with 8 μg of total DNA (4 μg of pIRES-frataxin and 4 μg of HA-Ub). The day after transfection, cells were treated for 24 h with 10 μM UCM together with 10 μM proteasome inhibitor MG132 and 50 ng/ml deubiquitinating enzyme (DUB) inhibitor Ub-aldehyde. HEK-293 Flp-In cells (Invitrogen) are HEK-293 variants allowing the stable and isogenic integration and expression of a transfected gene. The HEK-293 clones stably expressing frataxin^1-210 or frataxin^K147R were previously described (Condo et al., 2007; Rufini et al., 2011). FRDA 214 (GM16214) and FRDA 798 (GM16798) lymphoblasts, from clinically affected FRDA patients, as well as FRDA 215 (GM16215) and FRDA 241 (GM16241) lymphoblasts, from the correspondent heterozygous clinically unaffected sibling, were obtained from Coriell Cell Repositories (Camden, N.J., USA) and were cultured in RPMI supplemented with 15% FBS.
(§2) Immunoblotting. Total cell extracts were prepared in IP buffer (50 mM Tris-HCl, pH 7.5, 150 mM NaCl, 1% Nonidet P-40, 5 mM EDTA, 5 mM EGTA) supplemented with Complete protease inhibitor cocktail (Roche Diagnostics). For in vivo detection of ubiquitin conjugates, 10 μM MG132, 50 ng/ml Ub-aldehyde and 2 mM NEM were added to the lysis buffer. Protein extract (50 μg) was separated by 12% SDS-PAGE, blotted onto a nitrocellulose membrane and detected with specific antibodies. The immunoreactive bands were detected by ECL (GE Healthcare) and imaged with a ChemiDoc XRS system (Bio-Rad Laboratories). Densitometric analysis was performed using the ImageLab 4.1 Software (Bio-Rad Laboratories).
UCMs increase frataxin levels. To validate UCM activity, UCMs were tested their effect in human HEK-293 cells stably expressing single copy frataxin (293-frataxin). These cells allow the detection of all forms of frataxin, including the frataxin precursor. Compounds that were able to enhance frataxin precursor levels were synthesized, further chemically modified according to the docking model and tested again in 293-frataxin. Approximately 200 new candidate UCMs were tested in functional assays. Through this iterative process, new UCMs that promote frataxin precursor with surprising efficiency were identified.
293 Flp-In cells stably expressing frataxin^1-210 were treated for 24 hrs with 10 μM of the indicated UCM or 10 μM MG132 (MG). Total cell extracts were resolved on SDS-PAGE and analyzed with anti-frataxin antibody, or anti-tubulin, as a loading control. Pre: precursor; tub: tubulin.
293 Flp-In cells stably expressing frataxin^1-210 were treated for 72 hrs with 10 μM of the indicated UCM. Total cell extracts were resolved on SDS-PAGE and analyzed with anti-frataxin antibody, or anti-tubulin, as a loading control. Pre: precursor, int: intermediate, mat: mature; tub: tubulin.

[2] = target: T2, frataxin in FRDA 798 and FRDA 214 lymphoblasts (Homo sapiens, UniProt Q16595); assay: Frataxin accumulation in FRDA patient-derived lymphoblasts FRDA 798 and FRDA 214 (western blot); format: cell-based; details: for mature frataxin accumulation in FRDA patient cells: FRDA 798 and FRDA 214 lymphoblasts, 10 μM, 5 days, vs vehicle
T2 construct: GM16798; host or cells: FRDA 798, FRDA 214 and FRDA 203 patient-derived lymphoblasts
T2 sequence (Q16595 42-210): T1 sequence (Q16595 42-210)
Protocol: as §1
as §2, with “For in vivo detection of ubiquitin conjugates, 10 μM MG132, 50 ng/ml Ub-aldehyde and 2 mM NEM were added to the lysis buffer.” left out, “Densitometric analysis was performed using the ImageLab 4.1 Software (Bio-Rad Laboratories).” left out
UCM compounds promote frataxin accumulation in FRDA cells and rescue the aconitase defect. […] Frataxin levels were quantitated by western blot analysis on whole cell extracts using anti-frataxin antibody, or anti-tubulin, as a loading control. The relative frataxin abundance was quantitated by densitometric analysis and normalized with tubulin levels. […]

[3] = target: T3, Human recombinant frataxin precursor (aa 1-210) (Homo sapiens, UniProt Q16595); assay: Steady-state Trp fluorescence binding of UCMs to recombinant frataxin precursor; details: for change of protein Trp fluorescence (ΔF/F0): 2 μM frataxin precursor, ligand 0.5 to 25 μM, 20° C; for half-saturation binding constant, L1/2: 2 μM native frataxin precursor, numbers only in FIG. 5
T3 construct: Human recombinant frataxin precursor (aa 1-210) was expressed and purified; purchased GenScript Corp., N.J., USA
T3 sequence (Q16595 1-210): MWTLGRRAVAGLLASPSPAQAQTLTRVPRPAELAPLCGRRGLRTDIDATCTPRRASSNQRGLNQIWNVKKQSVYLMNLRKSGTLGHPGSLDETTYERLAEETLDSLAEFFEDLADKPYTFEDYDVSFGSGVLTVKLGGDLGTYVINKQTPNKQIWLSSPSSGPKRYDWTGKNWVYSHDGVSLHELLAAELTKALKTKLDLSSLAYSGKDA
Protocol: Steady-state fluorescence measurements. Human recombinant frataxin precursor (aa 1-210) was expressed and purified by GenScript Corp., N.J., USA. Steady-state fluorescence spectra were recorded at 20° C. using an ISS PC1 fluorometer (Iss Inc, Champain, Ill. Usa). The affinity of frataxin for the ligands studied in this paper was determined by monitoring the decrease in Trp fluorescence upon the addition of these molecules to solutions. The concentration of the protein was 2 μM while the concentration of the ligands varied from 0.5 to 25 μM. At the excitation wavelength of 280 nm, emission spectra were recorded between 290 and 440 nm, using a 4×4 mm path-length quartz fluorescence microcuvette (Hellma GmbH & Co., Müllheim/Baden, Germany). The spectra were corrected using an instrument correction curve obtained with standard fluorescent compounds such as N-acetyl tryptophanamide (NATA). All measurements were also corrected for the inner-filter effect. To simulate the absorption of ligand molecules at the excitation and the emission wavelengths, two cuvettes (2 mm optical length), containing a solution of ligands in buffer, were placed along the excitation and emission pathways. The fluorescence of NATA was thus measured varying the concentration of quencher and four correction curves (one for each ligand) were obtained.
Data were then plotted as fractional loss of Trp fluorescence (ΔF/F0) versus ligand concentration. Experimental data were analyzed by nonlinear regression through a hyperbolic binding isotherm, using the Kaleidagraph program (Synergy Software).
UCMs interact with frataxin. Ubiquitin-competing molecules were selected through structure-based virtual screening for their potential ability to interact with frataxin on its ubiquitination site. Since they are in fact able to prevent frataxin ubiquitination and to interfere with its K147-dependent degradation, confirmation of their ability to physically interact with frataxin was sought. Therefore, the interaction propensities of frataxin with these molecules were investigated by fluorescence spectroscopy through the analysis of the changes of the signal of the protein tryptophan residues in the presence of the different compounds.
The graphs represent the fractional loss of the protein fluorescence intensity (ΔF/F0), in the presence of different concentration of ligand, versus the ratio between ligand and frataxin. The interaction with UCM53 was also analyzed in the case of frataxin precursor previously denaturated in 3M guanidinium hydrochloride (lower right panel). The half-saturation binding constant, L1/2 (μM), of frataxin precursor with different UCM is indicated in each panel.

frataxin ubiquitination = target: T4, frataxin ubiquitination (Homo sapiens, UniProt Q16595); assay: In vivo (in-cell) frataxin ubiquitination assay in HEK-293 cells co-transfected with HA-Ub and frataxin; format: cell-based; details: HEK-293, HA-Ub + frataxin^1-210, 10 μM UCM, with MG132 and Ub-aldehyde
T4 construct: 293 cells were transiently co-transfected with HA-Ub and frataxin^1-210; expressed in transfected cells; host or cells: HEK-293 cells, transient transfection (pIRES-frataxin plus HA-Ub)
T4 sequence (Q16595 42-210): T1 sequence (Q16595 42-210)
Protocol: Cell culture and transfections. Human embryonic kidney HEK-293 cells were cultured in Dulbecco's modified Eagle's medium (DMEM) supplemented with 10% fetal bovine serum (FBS). HEK-293 cells were transfected using Lipofectamine 2000 reagents (Invitrogen), according to the manufacturer's instructions. Cells were plated on 6 cm dishes and transfected with 8 μg of total DNA (4 μg of pIRES-frataxin and 4 μg of HA-Ub). The day after transfection, cells were treated for 24 h with 10 μM UCM together with 10 μM proteasome inhibitor MG132 and 50 ng/ml deubiquitinating enzyme (DUB) inhibitor Ub-aldehyde. […]
Immunoblotting. […] Protein extract (50 μg) was separated by 12% SDS-PAGE, blotted onto a nitrocellulose membrane and detected with specific antibodies. The immunoreactive bands were detected by ECL (GE Healthcare) and imaged with a ChemiDoc XRS system (Bio-Rad Laboratories). […]
UCMs prevent frataxin ubiquitination. To test whether the new compounds promote frataxin accumulation by preventing its ubiquitin/proteasome-dependent degradation, their impact on frataxin ubiquitination was evaluated. […] The ubiquitination status of frataxin was evaluated by SDS-PAGE of total cell lysates and anti-frataxin immunoblotting. […] Ubiquitination level was measured as the ratio between the levels of ubiquitinated frataxin and frataxin precursor. […]

[4] = test system: aconitases activity in FRDA 214 lymphoblasts; assay: Aconitase activity rescue in FRDA lymphoblasts; format: cell-based, human; details: 5 days treatment
Protocol: Enzyme assays. For determinations of aconitases and citrate synthase activity, FRDA lymphoblasts were washed twice with ice-cold Dulbecco's Phosphate Buffered Saline (DPBS) and lysed in CelLytic M buffer (Sigma-Aldrich) supplemented with Complete protease inhibitor cocktail EDTA-free (Roche) and 2 mM trisodium citrate. Citrate was included to prevent the inactivation of iron-sulfur cluster of aconitases. Total aconitase activity was measured spectrophotometrically at 340 nm using the BIOXYTECH Aconitase-340™ Assay (OxisResearch™ 21041). The assay reactions, containing 150 μg of cell extract, were performed following the supplier's procedure, with the exception of temperature incubation at 25° C. Citrate synthase activity was assessed using 15 μg of cell extract with the Citrate Synthase Assay Kit (Sigma-Aldrich CS0720).
The aconitase activities were normalized with respect to citrate synthase ratios; one milliunit of enzyme was defined as the amount of protein that converted 1 nmol of NADP^+ in 1 min at 25° C.
Moreover, to validate a functional recovery of frataxin levels, rescue of cellular aconitases activity was evaluated in FRDA cells upon treatment with UCMs. […] Aconitases activity in cells derived from an unaffected carrier sibling (FRDA 215) is also shown for comparison.

[5] = target: T5, frataxin in FRDA 203 lymphoblast cell line (Homo sapiens, UniProt Q16595); assay: Frataxin accumulation in FRDA 203 patient-derived lymphoblasts (western blot); format: cell-based; details: FRDA 203 lymphoblasts, 1 μM, 4 days, vs DMSO; five experiments, P<0.05
T5 construct: GM16798; host or cells: FRDA 798, FRDA 214 and FRDA 203 patient-derived lymphoblasts
T5 sequence (Q16595 42-210): T1 sequence (Q16595 42-210)
Protocol: The efficacy of a specific compound, UCM166, was tested in FRDA patients-derived cells. (The structure of UCM166 is as shown previously.) FRDA patient-derived lymphoblast cell line FRDA 203 was cultured in the presence of 1 μM of UCM166 or DMSO alone (as a control) for 4 days. Total cell extracts were resolved on SDS-PAGE and analyzed in a western blot with anti-frataxin antibody, or anti-tubulin, as a loading control. FIG. 7 represents the relative frataxin abundance as quantified by densitometric analysis and normalized with tubulin levels. The data represent the mean±S.E.M. from five different independent experiments. P-value was calculated with Student's t-test and was statistically significant (**P<0.05) compared to non-treated conditions.

Structure (SMILES) | frataxin precursor accumulation [1] | mature frataxin accumulation [1] | mature frataxin accumulation in FRDA patient cells [2] | change of protein Trp fluorescence (ΔF/F0) [3] | half-saturation binding constant, L1/2 [3] | fluorescence changes with denatured protein ([3]; frataxin precursor denaturated in 3M guanidinium hydrochloride) | frataxin ubiquitination (ratio of ubiquitinated frataxin to frataxin precursor) (frataxin ubiquitination) | toxicity in long-term cell treatment ([2]; FRDA lymphoblasts, long-term (5 days) treatment) | aconitases activity (normalized to citrate synthase) [4] | relative frataxin abundance (normalized with tubulin) [5]
C/C(=N\NC(=O)c1ccc(C)cc1C)c1ccc2c(c1)Nc1ccccc1S2 [UCM53] | induce frataxin precursor accumulation | accumulation of mature frataxin | significant accumulation of mature frataxin | strong fluorescence changes | lowest binding affinity constants | completely lost | significantly abrogate frataxin ubiquitination |  |  | 
C/C(=N\NC(=O)c1cc2ccccc2cc1O)c1ccc2c(c1)Nc1ccccc1S2 [UCM71] | induce frataxin precursor accumulation | accumulation of mature frataxin |  |  |  |  | significantly abrogate frataxin ubiquitination | toxicity over a long-term treatment |  | 
C/C(=N\NC(=O)c1ccccc1)c1ccc2c(c1)Nc1ccccc1S2 [UCM108] | induce frataxin precursor accumulation | accumulation of mature frataxin | significant accumulation of mature frataxin | strong fluorescence changes | lowest binding affinity constants |  |  |  | significant increase in aconitases activity | 
COc1ccccc1C(=O)N/N=C(\C)c1ccc2c(c1)Nc1ccccc1S2 [UCM166] |  |  |  |  |  |  |  |  |  | efficiently promotes frataxin accumulation
